{
  "source": "paper PMC10066365",
  "about": "“Nemacol is a small molecule inhibitor of C. elegans vesicular acetylcholine transporter with anthelmintic potential” (Nature Communications, 2023)",
  "system": "C. elegans",
  "assay": "C. elegans motor phenotype scoring on solid media (Punc/jerky-unc, coiled, paralyzed), wild-type young adults",
  "format": "in vivo, Caenorhabditis elegans",
  "details": "for any phene, mean % fraction of young adults exhibiting any phenotype (coiled, jerky-Unc or paralyzed) / atypical locomotion (number of animals) / coiled (number of animals) / no phene (number of animals) / paralyzed (number of animals): one hour; for any phene, mean % fraction of young adults exhibiting any phenotype (coiled, jerky-Unc or paralyzed): mean of three biological replicates; for atypical locomotion (number of animals) / coiled (number of animals) / no phene (number of animals) / paralyzed (number of animals): young adults, 20 animals per trial, single replicate counts; for Fraction Coiled / Fraction Paralyzed / Fraction Punc: single experiment",
  "note": "Several values for one entry are separate records, joined by “and”; a condition that tells them apart may be missing. Identical values can stand only once. Entries after “also recorded” stand apart in the source; their conditions may differ.",
  "data": [
    {"compound": "O=[N+]([O-])c1ccc(N2CCN(CC3CC4C=CC3C4)CC2)cc1", "note": "(stereo not shown) [Nemacol-3]", "values": [
      {"measurement": "any phene, mean % fraction of young adults exhibiting any phenotype (coiled, jerky-Unc or paralyzed)", "setting": "3.75uM", "value": 19.1667, "unit": "%"},
      {"measurement": "atypical locomotion (number of animals)", "setting": "3.75uM", "value": "0 and 13 and 10"},
      {"measurement": "coiled (number of animals)", "setting": "3.75uM", "value": 0},
      {"measurement": "no phene (number of animals)", "setting": "3.75uM", "value": "20 and 7 and 10"},
      {"measurement": "paralyzed (number of animals)", "setting": "3.75uM", "value": 0},
      {"measurement": "C1 (number of animals scored)", "setting": "15 μM, 30 min, adults", "value": 0},
      {"measurement": "C2 (number of animals scored)", "setting": "15 μM, 30 min, adults", "value": 0},
      {"measurement": "Fraction Coiled, AVERAGES", "setting": "15 μM, 30 min, adults", "value": 0.0},
      {"measurement": "Fraction Paralyzed, AVERAGES", "setting": "15 μM, 30 min, adults", "value": 0.0},
      {"measurement": "Fraction Punc, AVERAGES", "setting": "15 μM, 30 min, adults", "value": 0.111},
      {"measurement": "NP (number of animals scored)", "setting": "15 μM, 30 min, adults", "value": "17 and 14"},
      {"measurement": "P (number of animals scored)", "setting": "15 μM, 30 min, adults", "value": 0},
      {"measurement": "Fraction Coiled", "setting": "15 μM, 30 min, adults", "value": 0.0},
      {"measurement": "Fraction Paralyzed", "setting": "15 μM, 30 min, adults", "value": 0.0},
      {"measurement": "C1 (number of animals scored)", "setting": "15 μM, 60 min, adults", "value": 0},
      {"measurement": "C2 (number of animals scored)", "setting": "15 μM, 60 min, adults", "value": 0},
      {"measurement": "Fraction Coiled, AVERAGES", "setting": "15 μM, 60 min, adults", "value": 0.0},
      {"measurement": "Fraction Paralyzed, AVERAGES", "setting": "15 μM, 60 min, adults", "value": 0.0},
      {"measurement": "Fraction Punc, AVERAGES", "setting": "15 μM, 60 min, adults", "value": 0.4},
      {"measurement": "P (number of animals scored)", "setting": "15 μM, 60 min, adults", "value": 0},
      {"measurement": "Fraction Coiled", "setting": "15 μM, 60 min, adults", "value": 0.0},
      {"measurement": "Fraction Paralyzed", "setting": "15 μM, 60 min, adults", "value": 0.0},
      {"measurement": "C1 (number of animals scored)", "setting": "15 μM, 90 min, adults", "value": 0},
      {"measurement": "C2 (number of animals scored)", "setting": "15 μM, 90 min, adults", "value": 0},
      {"measurement": "Fraction Coiled, AVERAGES", "setting": "15 μM, 90 min, adults", "value": 0.0},
      {"measurement": "Fraction Paralyzed, AVERAGES", "setting": "15 μM, 90 min, adults", "value": 0.0},
      {"measurement": "Fraction Punc, AVERAGES", "setting": "15 μM, 90 min, adults", "value": 0.167},
      {"measurement": "NP (number of animals scored)", "setting": "15 μM, 90 min, adults", "value": "16 and 14 and 15"},
      {"measurement": "P (number of animals scored)", "setting": "15 μM, 90 min, adults", "value": 0},
      {"measurement": "Punc (number of animals scored)", "setting": "15 μM, 90 min, adults", "value": "2 and 4 and 3"},
      {"measurement": "Fraction Coiled", "setting": "15 μM, 90 min, adults", "value": 0.0},
      {"measurement": "Fraction Paralyzed", "setting": "15 μM, 90 min, adults", "value": 0.0},
      {"measurement": "Fraction Punc", "setting": "15 μM, 90 min, adults", "value": "0.111 and 0.222 and 0.167"},
      {"measurement": "C1 (number of animals scored)", "setting": "15 μM, 120 min, adults", "value": 0},
      {"measurement": "C2 (number of animals scored)", "setting": "15 μM, 120 min, adults", "value": 0},
      {"measurement": "Fraction Coiled, AVERAGES", "setting": "15 μM, 120 min, adults", "value": 0.0},
      {"measurement": "Fraction Paralyzed, AVERAGES", "setting": "15 μM, 120 min, adults", "value": 0.0},
      {"measurement": "Fraction Punc, AVERAGES", "setting": "15 μM, 120 min, adults", "value": 0.0185},
      {"measurement": "NP (number of animals scored)", "setting": "15 μM, 120 min, adults", "value": "18 and 17"},
      {"measurement": "P (number of animals scored)", "setting": "15 μM, 120 min, adults", "value": 0},
      {"measurement": "Fraction Coiled", "setting": "15 μM, 120 min, adults", "value": 0.0},
      {"measurement": "Fraction Paralyzed", "setting": "15 μM, 120 min, adults", "value": 0.0},
      {"measurement": "C1 (number of animals scored)", "setting": "15 μM, 240 min, adults", "value": 0},
      {"measurement": "C2 (number of animals scored)", "setting": "15 μM, 240 min, adults", "value": 0},
      {"measurement": "Fraction Coiled, AVERAGES", "setting": "15 μM, 240 min, adults", "value": 0.0},
      {"measurement": "Fraction Paralyzed, AVERAGES", "setting": "15 μM, 240 min, adults", "value": 0.0},
      {"measurement": "Fraction Punc, AVERAGES", "setting": "15 μM, 240 min, adults", "value": 0.0},
      {"measurement": "NP (number of animals scored)", "setting": "15 μM, 240 min, adults", "value": 18},
      {"measurement": "P (number of animals scored)", "setting": "15 μM, 240 min, adults", "value": 0},
      {"measurement": "Punc (number of animals scored)", "setting": "15 μM, 240 min, adults", "value": 0},
      {"measurement": "Fraction Coiled", "setting": "15 μM, 240 min, adults", "value": 0.0},
      {"measurement": "Fraction Paralyzed", "setting": "15 μM, 240 min, adults", "value": 0.0},
      {"measurement": "Fraction Punc", "setting": "15 μM, 240 min, adults", "value": 0.0},
      {"measurement": "C1 (number of animals scored)", "setting": "15 μM, 360 min, adults", "value": 0},
      {"measurement": "C2 (number of animals scored)", "setting": "15 μM, 360 min, adults", "value": 0},
      {"measurement": "Fraction Coiled, AVERAGES", "setting": "15 μM, 360 min, adults", "value": 0.0},
      {"measurement": "Fraction Paralyzed, AVERAGES", "setting": "15 μM, 360 min, adults", "value": 0.0},
      {"measurement": "Fraction Punc, AVERAGES", "setting": "15 μM, 360 min, adults", "value": 0.0},
      {"measurement": "NP (number of animals scored)", "setting": "15 μM, 360 min, adults", "value": 18},
      {"measurement": "P (number of animals scored)", "setting": "15 μM, 360 min, adults", "value": 0},
      {"measurement": "Punc (number of animals scored)", "setting": "15 μM, 360 min, adults", "value": 0},
      {"measurement": "Fraction Coiled", "setting": "15 μM, 360 min, adults", "value": 0.0},
      {"measurement": "Fraction Paralyzed", "setting": "15 μM, 360 min, adults", "value": 0.0},
      {"measurement": "Fraction Punc", "setting": "15 μM, 360 min, adults", "value": 0.0},
      {"measurement": "Next Day: Animals alive (moving fine)", "setting": "15 μM, next day, adults", "value": "alive, recovered; also recorded: alive recovered"},
      {"measurement": "any phene, mean % fraction of young adults exhibiting any phenotype (coiled, jerky-Unc or paralyzed)", "setting": "15uM", "value": 65.4545, "unit": "%"},
      {"measurement": "atypical locomotion (number of animals)", "setting": "15uM", "value": "12 and 14 and 4 and 3 and 7"},
      {"measurement": "coiled (number of animals)", "setting": "15uM", "value": "2 and 1 and 5"},
      {"measurement": "no phene (number of animals)", "setting": "15uM", "value": "6 and 5 and 15 and 16 and 0"},
      {"measurement": "paralyzed (number of animals)", "setting": "15uM", "value": "2 and 0 and 8 and 11"},
      {"measurement": "C1 (number of animals scored)", "setting": "30 μM, 30 min, adults", "value": 0},
      {"measurement": "C2 (number of animals scored)", "setting": "30 μM, 30 min, adults", "value": 0},
      {"measurement": "Fraction Coiled, AVERAGES", "setting": "30 μM, 30 min, adults", "value": 0.0},
      {"measurement": "Fraction Paralyzed, AVERAGES", "setting": "30 μM, 30 min, adults", "value": 0.0},
      {"measurement": "Fraction Punc, AVERAGES", "setting": "30 μM, 30 min, adults", "value": 0.333},
      {"measurement": "NP (number of animals scored)", "setting": "30 μM, 30 min, adults", "value": "14 and 11"},
      {"measurement": "P (number of animals scored)", "setting": "30 μM, 30 min, adults", "value": 0},
      {"measurement": "Punc (number of animals scored)", "setting": "30 μM, 30 min, adults", "value": "4 and 7"},
      {"measurement": "Fraction Coiled", "setting": "30 μM, 30 min, adults", "value": 0.0},
      {"measurement": "Fraction Paralyzed", "setting": "30 μM, 30 min, adults", "value": 0.0},
      {"measurement": "Fraction Punc", "setting": "30 μM, 30 min, adults", "value": "0.222 and 0.4"},
      {"measurement": "C1 (number of animals scored)", "setting": "30 μM, 60 min, adults", "value": 0},
      {"measurement": "C2 (number of animals scored)", "setting": "30 μM, 60 min, adults", "value": 0},
      {"measurement": "Fraction Coiled, AVERAGES", "setting": "30 μM, 60 min, adults", "value": 0.0},
      {"measurement": "Fraction Paralyzed, AVERAGES", "setting": "30 μM, 60 min, adults", "value": 0.0},
      {"measurement": "Fraction Punc, AVERAGES", "setting": "30 μM, 60 min, adults", "value": 0.6},
      {"measurement": "P (number of animals scored)", "setting": "30 μM, 60 min, adults", "value": 0},
      {"measurement": "Punc (number of animals scored)", "setting": "30 μM, 60 min, adults", "value": "8 and 15"},
      {"measurement": "Fraction Coiled", "setting": "30 μM, 60 min, adults", "value": 0.0},
      {"measurement": "Fraction Paralyzed", "setting": "30 μM, 60 min, adults", "value": 0.0},
      {"measurement": "Fraction Punc", "setting": "30 μM, 60 min, adults", "value": "0.444 and 0.8"},
      {"measurement": "C1 (number of animals scored)", "setting": "30 μM, 90 min, adults", "value": 0},
      {"measurement": "C2 (number of animals scored)", "setting": "30 μM, 90 min, adults", "value": 0},
      {"measurement": "Fraction Coiled, AVERAGES", "setting": "30 μM, 90 min, adults", "value": 0.0},
      {"measurement": "Fraction Paralyzed, AVERAGES", "setting": "30 μM, 90 min, adults", "value": 0.0},
      {"measurement": "Fraction Punc, AVERAGES", "setting": "30 μM, 90 min, adults", "value": 0.3},
      {"measurement": "NP (number of animals scored)", "setting": "30 μM, 90 min, adults", "value": "13 and 9 and 16"},
      {"measurement": "P (number of animals scored)", "setting": "30 μM, 90 min, adults", "value": 0},
      {"measurement": "Fraction Coiled", "setting": "30 μM, 90 min, adults", "value": 0.0},
      {"measurement": "Fraction Paralyzed", "setting": "30 μM, 90 min, adults", "value": 0.0}
    ]}
  ]
}
